Measured values taken from US4518779A, “1,2,3,4-Tetrahydro-1-aminomethyl-4-phenyl isoquinolines” (Pennwalt Corporation, priority 1982, dated 1985).
Where a name gives a salt, the structure may show the parent alone. Read-outs that look alike come from different tables or passages of the source.

Target: [^3 H]-mepyramine binding in brain homogenates (Rattus norvegicus, UniProt P31390)
Experiment: biochemical
Details: read-out: (^3 H)mepyramine rating: molar concentration required to inhibit by 50% the binding of [^3 H]mepyramine
[1] = in vitro, brain homogenates, smaller numbers indicate greater potency

[^3 H]-mepyramine binding in brain homogenates, sequence (P31390 whole entry): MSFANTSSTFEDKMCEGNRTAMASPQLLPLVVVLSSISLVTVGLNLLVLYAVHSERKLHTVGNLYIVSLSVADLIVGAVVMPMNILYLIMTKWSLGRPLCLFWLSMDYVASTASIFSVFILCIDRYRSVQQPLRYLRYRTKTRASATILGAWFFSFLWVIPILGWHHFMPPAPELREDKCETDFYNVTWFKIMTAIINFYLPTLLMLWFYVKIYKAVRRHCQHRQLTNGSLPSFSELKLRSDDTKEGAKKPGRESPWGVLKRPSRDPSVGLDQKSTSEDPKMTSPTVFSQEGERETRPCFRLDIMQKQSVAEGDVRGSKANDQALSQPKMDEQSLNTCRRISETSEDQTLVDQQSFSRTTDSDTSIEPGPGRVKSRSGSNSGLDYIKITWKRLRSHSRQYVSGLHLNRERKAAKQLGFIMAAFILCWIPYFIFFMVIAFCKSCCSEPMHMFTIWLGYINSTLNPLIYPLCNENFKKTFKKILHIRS

SMILES	IC50	IC50 [1]
CNC[C@@H]1NC[C@H](c2ccccc2)c2ccccc21 (relative stereo) [Example 1 cis form, cis-1,2,3,4-tetrahydro-1-methylaminomethyl-4-phenylisoquinoline dihydrochloride]	3500 nM	–
CNC[C@@H]1NC[C@@H](c2ccccc2)c2ccccc21 (relative stereo) [Example 1 trans form, trans-1,2,3,4-tetrahydro-1-methylaminomethyl-4-phenylisoquinoline dihydrochloride]	78 nM	–
CN(C)C[C@@H]1NC[C@H](c2ccccc2)c2ccccc21 (relative stereo) [Example 2, 1,2,3,4-tetrahydro-1-dimethylaminomethyl-4-phenylisoquinoline dihydrochloride]	–	2800 nM
CN(C)C[C@H]1c2ccccc2[C@@H](c2ccccc2)CN1C (relative stereo) [Example 3, 1,2,3,4-tetrahydro-2-methyl-1-dimethylaminomethyl-4-phenylisoquinoline dihydrochloride]	–	1800 nM
CCNC[C@@H]1NC[C@H](c2ccccc2)c2ccccc21 (relative stereo) [Example 4, 1,2,3,4-tetrahydro-1-(ethylamino)methyl-4-phenylisoquinoline dihydrochloride]	–	> 1000 nM
